Activity calls are given as the source filed them. No rule for the calls is given here.
Test system: rodent carcinogenicity bioassays, tumor incidence
Assay: CCRIS carcinogenicity studies
How it was run: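 NCI-built, expert-reviewed records of carcinogenicity and related test outcomes (mutagenicity, tumor promotion/inhibition) compiled from published and report sources, historical span 1985-2011, not updated.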

**Q.** `NC(=O)N(CCO)N=O` was tested. Which carcinogen call (Species: HAMSTER, Strain/Sex: SYRIAN/FEMALE, Route: GAVAGE, Dose: 0, 14 MG/ML ((0.2 ML OF A SOLUTION IN ETHYL ACETATE/CORN OIL (1:2)) 1/WK FOR 22 WK (STUDY DURATION: LIFE SPAN), Tumor Site: Type of Lesion: LIVER: HEMANGIOSARCOMA, SPLEEN: HEMANGIOSARCOMA) did it give?
**A.** active; positive

**Q.** What about the carcinogen call (Species: HAMSTER, Strain/Sex: SYRIAN/MALE, Route: GAVAGE, Dose: 0, 14 MG/ML ((0.2 ML OF A SOLUTION IN ETHYL ACETATE/CORN OIL (1:2)) 1/WK FOR 22 WK (STUDY DURATION: 20 WK), Tumor Site: Type of Lesion: LIVER: HEMANGIOSARCOMA, PANCREAS: CARCINOMA OR ADENOMA, SPLEEN: HEMANGIOSARCOMA, FORESTOMACH: SQUAMOUS CELL CARCINOMA OR, Tumor Site: Type of Lesion: LIVER: HEMANGIOSARCOMA, PANCREAS: CARCINOMA OR ADENOMA, SPLEEN: HEMANGIOSARCOMA, FORESTOMACH: SQUAMOUS CELL CARCINOMA OR) of the same compound?
**A.** active; positive

**Q.** And the carcinogen call (Species: RAT, Strain/Sex: F344/MALE, Route: GAVAGE, Dose: 0, 2.4 MG IN 0.2 ML ETHYL ACETATE/CORN OIL (1:1) 2/WK FOR 30 WK (TOTAL DOSE: 168 MG) (STUDY DURATION: 80 WK), Tumor Site: Type of Lesion: LUNG: CARCINOMA OR ADENOMA, THYROID: CARCINOMA OR ADENOMA)?
**A.** active; positive

**Q.** How did the carcinogen call (Species: MOUSE, Strain/Sex: B6C3F1/FEMALE, Route: INTRAPERITONEAL, Dose: 0, 40, 80 MG/KG IN BUFFERED SALINE 3/WK FOR 52 WK, Dose: 0, 40, 80 MG/KG IN BUFFERED SALINE 3/WK FOR 52 WK, Tumor Site: Type of Lesion: LYMPHATIC SYSTEM: HISTIOCYTIC LYMPHOMA) turn out when `CC(CN1CC(=O)NC(=O)C1)N1CC(=O)NC(=O)C1` (stereo not given) was run?
**A.** active; positive

**Q.** And the carcinogen call (Species: MOUSE, Strain/Sex: B6C3F1/MALE, Route: INTRAPERITONEAL, Dose: 0, 40, 80 MG/KG IN BUFFERED SALINE 3/WK FOR 52 WK, Dose: 0, 40, 80 MG/KG IN BUFFERED SALINE 3/WK FOR 52 WK)?
**A.** inactive; negative

**Q.** What about the carcinogen call (Species: RAT, Strain/Sex: SPRAGUE-DAWLEY/FEMALE, Route: INTRAPERITONEAL, Dose: 0, 48, 96 MG/KG IN BUFFERED SALINE 3/WK FOR 52 WK, Dose: 0, 48, 96 MG/KG IN BUFFERED SALINE 3/WK FOR 52 WK, Tumor Site: Type of Lesion: UTERUS: ADENOCARCINOMA (NOS)) of the same compound?
**A.** active; positive

**Q.** What about the carcinogen call (Species: RAT, Strain/Sex: SPRAGUE-DAWLEY/MALE, Route: INTRAPERITONEAL, Dose: 0, 48, 96 MG/KG IN BUFFERED SALINE 3/WK FOR 52 WK, Dose: 0, 48, 96 MG/KG IN BUFFERED SALINE 3/WK FOR 52 WK) of the same compound?
**A.** inactive; negative

**Q.** With `CCN(N=O)C(=O)NCC(C)=O` as the compound, how does the carcinogen call (Species: RAT, Strain/Sex: F344/FEMALE, Route: GAVAGE, Dose: 0, 9.5, 19 MG/ML IN CORN OIL/ETHYL ACETATE (2:1) 2/WK FOR 30 WK (STUDY DURATION: LIFETIME), Dose: 0, 9.5, 19 MG/ML IN CORN OIL/ETHYL ACETATE (2:1) 2/WK FOR 30 WK (STUDY DURATION: LIFETIME), Tumor Site: Type of Lesion: LUNG: TUMOR, MAMMARY GLAND: CARCINOMA, UTERUS: TUMOR, FORESTOMACH: TUMOR, SPLEEN: TUMOR, ZYMBAL GLAND: TUMOR, SMALL INTE, Tumor Site: Type of Lesion: LUNG: TUMOR, MAMMARY GLAND: CARCINOMA, UTERUS: TUMOR, FORESTOMACH: TUMOR, SPLEEN: TUMOR, ZYMBAL GLAND: TUMOR, SMALL INTE) read?
**A.** active; positive

**Q.** And the carcinogen call (Species: RAT, Strain/Sex: F344/FEMALE, Route: ORAL, Dose: 0, 40, 80 MG/L IN DRINKING WATER 5 D/WK FOR 30 WK (STUDY DURATION: LIFETIME), Dose: 0, 40, 80 MG/L IN DRINKING WATER 5 D/WK FOR 30 WK (STUDY DURATION: LIFETIME), Tumor Site: Type of Lesion: LIVER: TUMOR, LUNG: TUMOR, MAMMARY GLAND: CARCINOMA, UTERUS: TUMOR, THYROID: FOLLICULAR TUMOR, COLON: TUMOR, NERVOUS SYS, Tumor Site: Type of Lesion: LIVER: TUMOR, LUNG: TUMOR, MAMMARY GLAND: CARCINOMA, UTERUS: TUMOR, THYROID: FOLLICULAR TUMOR, COLON: TUMOR, NERVOUS SYS)?
**A.** active; positive

**Q.** And the carcinogen call (Species: RAT, Strain/Sex: F344/MALE, Route: GAVAGE, Dose: 0, 9.5, 19 MG/ML IN CORN OIL/ETHYL ACETATE (2:1) 2/WK FOR 30 WK (STUDY DURATION: LIFETIME), Dose: 0, 9.5, 19 MG/ML IN CORN OIL/ETHYL ACETATE (2:1) 2/WK FOR 30 WK (STUDY DURATION: LIFETIME), Tumor Site: Type of Lesion: LIVER: TUMOR, LUNG: TUMOR, MESOTHELIUM: TUMOR, NERVOUS SYSTEM: TUMOR, THYROID: FOLLICULAR TUMOR, FORESTOMACH: TUMOR, SPL, Tumor Site: Type of Lesion: LIVER: TUMOR, LUNG: TUMOR, MESOTHELIUM: TUMOR, NERVOUS SYSTEM: TUMOR, THYROID: FOLLICULAR TUMOR, FORESTOMACH: TUMOR, SPL)?
**A.** active; positive

**Q.** What about the carcinogen call (Species: RAT, Strain/Sex: F344/MALE, Route: ORAL, Dose: 0, 40, 80 MG/L IN DRINKING WATER FOR 5 D/WK FOR 30 WK (STUDY DURATION: LIFETIME), Dose: 0, 40, 80 MG/L IN DRINKING WATER FOR 5 D/WK FOR 30 WK (STUDY DURATION: LIFETIME), Tumor Site: Type of Lesion: LUNG: TUMOR, THYROID: FOLLICULAR TUMOR, COLON: TUMOR, MESOTHELIUM: TUMOR, NERVOUS SYSTEM: TUMOR, SKIN: TUMOR, ZYMBAL GLA, Tumor Site: Type of Lesion: LUNG: TUMOR, THYROID: FOLLICULAR TUMOR, COLON: TUMOR, MESOTHELIUM: TUMOR, NERVOUS SYSTEM: TUMOR, SKIN: TUMOR, ZYMBAL GLA) of the same compound?
**A.** active; positive

**Q.** What does the source list for `Cc1ccccc1N`?
**A.** carcinogen call (Species: MOUSE, Strain/Sex: B6C3F1/FEMALE, Route: ORAL, Dose: 0, 1000, 3000 PPM IN DIET FOR 103 WK, Dose: 0, 1000, 3000 PPM IN DIET FOR 103 WK, Tumor Site: Type of Lesion: LIVER: HEPATOCELLULAR CARCINOMA OR HEPATOCELLULAR ADENOMA): active; positive; carcinogen call (Species: MOUSE, Strain/Sex: B6C3F1/MALE, Route: ORAL, Dose: 0, 1000, 3000 PPM IN DIET FOR 102-103 WK, Dose: 0, 1000, 3000 PPM IN DIET FOR 102-103 WK, Tumor Site: Type of Lesion: BLOOD VESSELS: HEMANGIOMA OR HEMANGIOSARCOMA): active; positive; carcinogen call (Species: MOUSE, Strain/Sex: CD-1/MALE,FEMALE, Route: ORAL, Dose: 0, 16000, 32000 MG/KG FOR 3 MO, THEN 0, 8000, 16000 MG/KG FOR 15 MO, Dose: 0, 16000, 32000 MG/KG FOR 3 MO, THEN 0, 8000, 16000 MG/KG FOR 15 MO, Tumor Site: Type of Lesion: BLOOD VESSELS: HEMANGIOMA, HEMANGIOSARCOMA): active; positive; carcinogen call (Species: RAT, Strain/Sex: CD-1/MALE, Route: ORAL, Dose: 0, 8000, 16000 MG/KG FOR 3 MO, THEN 0, 4000, 8000 MG/KG FOR 15 MO, Dose: 0, 8000, 16000 MG/KG FOR 3 MO, THEN 0, 4000, 8000 MG/KG FOR 15 MO, Tumor Site: Type of Lesion: INTEGUMENTARY SYSTEM (SUBCUTANEOUS TISSUE): FIBROMA, FIBROSARCOMA): active; positive; carcinogen call (Species: RAT, Strain/Sex: F344/FEMALE, Route: ORAL, Dose: 0, 3000, 6000, PPM IN DIET FOR 104 WK (STUDY DURATION: 104 WK), Dose: 0, 3000, 6000, PPM IN DIET FOR 104 WK (STUDY DURATION: 104 WK), Tumor Site: Type of Lesion: SPLEEN OR PERITONEUM: SARCOMA): active; positive; carcinogen call (Species: RAT, Strain/Sex: F344/FEMALE, Route: ORAL, Dose: 0, 3000, 6000 PPM IN DIET FOR 104 WK, Dose: 0, 3000, 6000 PPM IN DIET FOR 104 WK, Tumor Site: Type of Lesion: SPLEEN: ANGIOSARCOMA, SARCOMA (NOS) OR ANGIOSARCOMA OR OSTEOSARCOMA, URINARY BLADDER: TRANSITIONAL CELL CARCINOMA, TRANS): active; positive; carcinogen call (Species: RAT, Strain/Sex: F344/MALE, Route: ORAL, Dose: 0, 3000, 6000 PPM IN DIET FOR 101-104 WK, Dose: 0, 3000, 6000 PPM IN DIET FOR 101-104 WK, Tumor Site: Type of Lesion: INTEGUMENTARY SYSTEM (SUBCUTANEOUS TISSUE): FIBROMA, SPLEEN: FIBROMA, ANGIOSARCOMA, MULTIPLE ORGANS OR TUNICA VAGINALIS:, Tumor Site: Type of Lesion: INTEGUMENTARY SYSTEM (SUBCUTANEOUS TISSUE): FIBROMA, SPLEEN: FIBROMA, ANGIOSARCOMA, MULTIPLE ORGANS OR TUNICA VAGINALIS:): active; positive; carcinogen call (Species: RAT, Strain/Sex: F344/MALE, Route: ORAL, Dose: 0, 3000, 6000 PPM IN DIET FOR 104 WK (STUDY DURATION: 104 WK), Dose: 0, 3000, 6000 PPM IN DIET FOR 104 WK (STUDY DURATION: 104 WK), Tumor Site: Type of Lesion: SPLEEN OR PERITONEUM: SARCOMA): active; positive; carcinogen call (Species: RAT, Strain/Sex: F344/MALE, Route: ORAL, Dose: 4.0 G/KG IN DIET FOR 72 WK (TOTAL DOSE 0.22 MOL/RAT), Tumor Site: Type of Lesion: SPLEEN: FIBROMA, INTEGUMENTARY SYSTEM (SKIN): FIBROMA, MAMMARY GLAND: FIBROADENOMA, ADENOCARCINOMA, PERITONEAL CAVITY: M, Tumor Site: Type of Lesion: SPLEEN: FIBROMA, INTEGUMENTARY SYSTEM (SKIN): FIBROMA, MAMMARY GLAND: FIBROADENOMA, ADENOCARCINOMA, PERITONEAL CAVITY: M): active; positive
